From BindingDB's records for doi:10.1021/acs.jnatprod.0c01136 (Chinese Academy of Sciences, 2021)

Experiment: Inhibition of spike glycoprotein S in SARS-CoV-2 pseudovirus infected in human 293T/ACE2 cells assessed as inhibition of viral infection pretreated the virus for 30 mins followed by viral infection measured after 48 hrs by luciferase reporter gene assay

Row | SMILES | IC50 [nM]
1 | COc1c(O)c2c(=O)cc(OC)c3c4c(OC)cc(=O)c5c(O)c(OC)c6c(c(c1C[C@](C)(O)[C@H]6C(C)=O)c23)c54 | 120
2 | COC1=C(CC(C)=O)C(=O)c2c(c(O)cc(OC)c2-c2c(OC)cc(O)c3c2C(=O)C(CC(C)=O)=C(OC)C3=O)C1=O | 170
3 | COc1c2c3c4c(c(OC)c(=O)c5c(O)cc(OC)c(c6c(OC)cc(O)c(c1=O)c63)c54)[C@@H](C(C)=O)[C@@](C)(O)C2 [Hypocrellin A] | 38
